Key:
[1] = test system: MCF7 cells; assay: Live-cell imaging growth studies and EC50 for growth inhibition, MCF7; assay type: cell-based; conditions: Homo sapiens, read-out: Approximate Half-maximal Effective Concentration (EC50) for growth inhibition
Procedure: (§1) MCF7, T47D, T47D ESR1 Y537S or T47D ESR1 D538G cells were seeded at 2×10^5 density per well in 6-well tissue culture-treated plates in DMEM/F12/10% FBS (2 mL total volume). […] The plate was then placed in the Incucyte® S3 Live-Cell Analysis System and images were acquired every 4 hours for a total of 5 days (120 hours). Data were analyzed using the Incucyte® Software v2020C which quantified cell surface area coverage as confluence values. Relative growth was calculated for all timepoints for all growth conditions relative to the confluence value observed for the control at 120 hours. Graphing and statistical analyses were performed using Graphpad Prism (GraphPad Software).

[2] = test system: T47D cells; assay: Live-cell imaging growth studies and EC50 for growth inhibition, T47D; assay type: cell-based; conditions: Homo sapiens, read-out: Approximate Half-maximal Effective Concentration (EC50) for growth inhibition
Procedure: as §1

[3] = test system: MCF7 cells; assay: Luminescence-based MCF7 cell proliferation assay, dose-response matrix; conditions: 5 days (120 hours)
Procedure: MCF7 cells were seeded at a density of 2×10^4 cells in 200 μL of media per well in 2 technical replicate, 96-well black, clear-bottom plates and incubated overnight at 37° C. in a 5% CO2 incubator. […] DMSO was used as the vehicle control. The plates were then incubated for 5 days at 37° C. in a 5% CO2 incubator.
The plates were equilibrated to room temperature for approximately 30 minutes. 50 μL of Cell-Titer Glo (Promega) was added to all wells of the plates, covered with aluminum foil and shaken gently by hand for less than 1 minute. The plates were then incubated for 10 minutes at room temperature. Luminescence was recorded using Envision Multi Label Reader. To assess cell viability, luminescence values for drug-treated wells were normalized to average luminescence of vehicle (DMSO) wells to obtain percent viability relative to control cells. The data were analyzed with the Combenefit software.

[4] = test system: T47D ESR1 Y537S cells; assay: Live-cell imaging growth studies and EC50 for growth inhibition, T47D ESR1 Y537S; assay type: cell-based; conditions: Homo sapiens, read-out: Approximate Half-maximal Effective Concentration (EC50) for growth inhibition
Procedure: as §1

[5] = test system: T47D ESR1 D538G cells; assay: Live-cell imaging growth studies and EC50 for growth inhibition, T47D ESR1 D538G; assay type: cell-based; conditions: Homo sapiens; T47D ESR1 D537G (so in the source); read-out: Approximate Half-maximal Effective Concentration (EC50) for growth inhibition
Procedure: as §1

[6] = test system: MCF7 xenograft; assay: MCF7 orthotopic xenograft, combination with mTOR inhibitor everolimus; assay type: in vivo, NOD/SCID mice
Procedure: NOD/SCID female mice (Charles River, 6-7 weeks old upon arrival) were implanted with 17b-estradiol 0.72 mg 90-day pellets. The next day, each mouse was implanted with 5×10^6 MCF7 cells/[…] per in the axial mammary fat pad. Compound administration was initiated once the tumors reached 175-200 mm^3. Diet was supplemented with peanut butter to help maintain body weights. […] (FIG. 28 and Table 13).
Error bars represent standard deviation.
The ratio of Tween 80 to PEG-400 is 0.02 g Tween 80 to 1 ml PEG-400. PEG-400 is added to a pre-aliquoted volume of Tween 80. • For everolimus: 10% DMSO, 90% (2% Tween 80, PEG 400) (DMSO/PEG/Tween) Sampling: tumors were measured twice weekly. Terminal sacrifice was ˜18 hr after last dose. Tumor volume calculation: Tumor Volume=(width×width×length)/2, where all measurements are in mm and the tumor volume is in mm^3. Tumor Growth Inhibition (TGI) calculation: TGI (%)

[7] = test system: tamoxifen-resistant MCF7 xenografts; assay: Tamoxifen-resistant MCF7 orthotopic xenograft tumor growth inhibition; assay type: in vivo, Nu/Nu mice
Procedure: Species: Ovariectomized Nu/Nu female mice. Animal handling: Axial mammary fat pad implantation of tamoxifen-resistant tumor fragment (from E45 passage. SC per mouse. Tamoxifen pellet (5 mg, 60-day release) was implanted under the same anesthesia as tumor fragment (pellet—dorsal; tumor—ventral).
Dosing: Oral (gavage), once a day for 28 days (QD×28)
(§2) Sampling: Tumors were measured twice weekly. Terminal sacrifice was ˜18 hr after last dose; tumors were harvested, divided, and flash frozen. ERα levels were determined by immunoblotting (see Appendix 1 for details).

[8] = target: T1, ERα (Homo sapiens, UniProt P03372); assay: ERα levels in tamoxifen-resistant MCF7 xenografts (immunoblot); assay type: in vivo, Nu/Nu mice; conditions: tamoxifen-resistant MCF7, palbociclib alone 60 mg/kg
T1 construct: robustly degrades ER in ER-positive breast cancer cell lines; endogenous in cells; host or cells: MCF7, T47D (cell culture); MCF7 and tamoxifen-resistant MCF7 xenograft tumours in mice
T1 sequence (P03372 1-595): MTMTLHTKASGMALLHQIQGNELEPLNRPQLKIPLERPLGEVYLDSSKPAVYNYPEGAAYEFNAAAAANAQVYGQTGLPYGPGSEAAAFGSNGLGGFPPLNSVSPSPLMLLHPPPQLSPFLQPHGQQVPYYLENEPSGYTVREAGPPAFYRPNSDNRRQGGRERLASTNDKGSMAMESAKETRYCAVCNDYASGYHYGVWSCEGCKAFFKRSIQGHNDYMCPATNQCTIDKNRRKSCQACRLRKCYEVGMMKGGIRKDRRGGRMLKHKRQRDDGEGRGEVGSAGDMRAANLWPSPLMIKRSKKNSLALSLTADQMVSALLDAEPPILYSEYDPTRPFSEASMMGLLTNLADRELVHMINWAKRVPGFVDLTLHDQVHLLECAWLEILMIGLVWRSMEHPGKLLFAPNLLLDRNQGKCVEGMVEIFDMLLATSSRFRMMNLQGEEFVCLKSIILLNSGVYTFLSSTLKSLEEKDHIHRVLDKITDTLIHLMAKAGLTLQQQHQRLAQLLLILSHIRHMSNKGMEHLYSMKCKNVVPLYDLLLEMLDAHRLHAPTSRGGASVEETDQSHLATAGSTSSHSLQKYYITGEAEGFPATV
Procedure: At study termination, the tumors were removed from the mice, and ERα levels were determined by immunoblotting the tumor homogenates. […] ERα levels from the various compound arms were compared to vehicle-treated animals by analyzing the tumor lysates on separate immunoblots (graphs in FIG. 10, FIG. 11, and FIG. 12 depict data from individual immunoblots) and the average ERα levels with standard deviation is shown.
as §2
Flash frozen tumors were removed from −80° C. storage and placed on dry ice. RIPA lysis buffer and Halt protease inhibitors were used at 400 μl per tumor sample. A steel ball (5 mm) was placed in each sample for tissue disruption. Samples were lysed with TissueLyzer at 24 Hz for 4 minutes. The homogenization was stopped half way through the process and the block flipped over for the duration of the process. […] Lysates were then measured for total protein concentration by BCA (per manufacturer's protocol). […]
Protein was transferred from gels to nitrocellulose with Bio-Rad Turbo on default setting. […] The blots were cut so that beta-actin and ERα can be detected from the same lane/sample. […]

[9] = test system: MCF7 xenograft; assay: MCF7 orthotopic xenograft, combination with PI3K inhibitor alpelisib; assay type: in vivo, NOD/SCID mice
Procedure: NOD/SCID female mice (Charles River, 6-7 weeks old upon arrival) were implanted with 17b-estradiol 0.72 mg 90-day pellets. The next day, each mouse was implanted with 5×10^6 MCF7 cells/[…] in the axial mammary fat pad. Compound administration was initiated once the tumors reached 175-200 mm^3. Diet was supplemented with peanut butter to help maintain body weights. Dosing holidays occurred on days 6, 7, 8 and 9 due to body weight loss in some animals in study arms 3 and 4. […] (FIG. 31 and Table 15).
Dosing holidays occurred on days 6, 7, 8 and 9. Error bars represent standard deviation.
The ratio of Tween 80 to PEG-400 is 0.02 g Tween 80 to 1 ml PEG-400. PEG-400 is added to a pre-aliquoted volume of Tween 80. • For alpelisib: 1% carboxymethylcellulose (CMC), 0.5% Tween 80/DI water (‘CMC/Tween’) Sampling: tumors were measured twice weekly. Terminal sacrifice was ˜18 hr after last dose. Tumor volume calculation: Tumor Volume=(width×width×length)/2, where all measurements are in mm and the tumor volume is in mm^3. Tumor Growth Inhibition (TGI) calculation: TGI (%)

[10] = everolimus 2.5 mg/kg oral QD x 26
[11] = palbociclib 60 mg/kg oral QD x 28
[12] = alpelisib 25 mg/kg oral QD x 19

C[C@H](Nc1ccc2c(c1)OCCn1cc(N3C(=O)OC[C@H]3C(F)F)nc1-2)C(N)=O [GDC-0077]
EC50 [1]: 40 nM
EC50 [2]: 30 nM
MCF7 cell proliferation, single agent [3]: dose-dependent decrease

CCN1CCN(Cc2ccc(Nc3ncc(F)c(-c4cc(F)c5nc(C)n(C(C)C)c5c4)n3)nc2)CC1 [Abemaciclib]
EC50 [1]: 40 nM

CO[C@H]1C[C@@H]2CC[C@@H](C)[C@@](O)(O2)C(=O)C(=O)N2CCCC[C@H]2C(=O)O[C@H]([C@H](C)C[C@@H]2CC[C@@H](OCCO)[C@H](OC)C2)CC(=O)[C@H](C)/C=C(\C)[C@@H](O)[C@@H](OC)C(=O)[C@H](C)C[C@H](C)/C=C/C=C/C=C/1C [Everolimus, reference compound]
EC50 [4]: 10 nM
EC50 [1]: 10 nM
EC50 [2]: 100 nM
EC50 [5]: 10 nM
Day 26 Tumor Volume (mean ± SD) [6, 10]: 252 ± 50 mm^3
TGI (% vehicle) [6, 10]: 89 % vehicle
tumor growth inhibition (TGI) ([6]; everolimus 2.5 mg/kg oral once daily, 26 days): 89%
MCF7 cell proliferation, single agent [3]: dose-dependent decrease

CC1(C)CCC(CN2CCN(c3ccc(C(=O)NS(=O)(=O)c4ccc(NCC5CCOCC5)c([N+](=O)[O-])c4)c(Oc4cnc5[nH]ccc5c4)c3)CC2)=C(c2ccc(Cl)cc2)C1 [Venetoclax]
EC50 [1]: 10000 nM

CC(=O)c1c(C)c2cnc(Nc3ccc(N4CCNCC4)cn3)nc2n(C2CCCC2)c1=O [Palbociclib, 6-acetyl-8-cyclopentyl-5-methyl-2-{[5-(piperazin-1-yl)pyridin-2-yl]amino}pyrido[2,3-d]pyrimidin-7(8H)-one, reference compound]
Day 28 Tumor volume (mean ± SD) [7, 11]: 222 ± 139 mm^3
TGI (% vehicle) [7, 11]: 91 % vehicle
tumor growth inhibition (TGI) ([7]; tamoxifen-resistant MCF7, palbociclib 60 mg/kg/day oral, 28 days): 91%
effect on tumor ERα levels [8]: did not reduce

Cc1nc(NC(=O)N2CCC[C@H]2C(N)=O)sc1-c1ccnc(C(C)(C)C(F)(F)F)c1 [Alpelisib, reference compound]
Day 19 Tumor Volume (mean ± SD) [9, 12]: 281 ± 37 mm^3
TGI (% vehicle) [9, 12]: 74 % vehicle
tumor growth inhibition (TGI) ([9]; alpelisib 25 mg/kg oral once daily, 19 days, dosing holidays days 6-9): 74%
EC50 [1]: 100 nM
EC50 [2]: 100 nM
MCF7 cell proliferation, single agent [3]: dose-dependent decrease

— US20220193072A1, “METHODS OF TREATING BREAST CANCER WITH TETRAHYDRONAPHTHALENE DERIVATIVES AS ESTROGEN RECEPTOR DEGRADER” (Arvinas Operations, Inc., priority 2020, published 2022)
